Reference: patent US20250333397A1 (REMIX THERAPEUTICS INC., priority 2021, published 2025)
Where two headings read alike, the source gives them in different places.

How the values were obtained:
Assay type in all cases: cell-based, human
[1] = tested on: SMN2 mRNA; assay: RT-qPCR splicing assay panel, SMN2 canonical junction (CJ) mRNA
How it was run: (§1)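 Junction-specific RT-qPCR read the canonical exon-exon junction and the compound-induced alternative-exon junction, normalized to GAPDH, GUSB or PPIA and then to DMSO (2^(-ΔΔCt)). Input was lysate from A673 or K562 cells exposed for 24 h to compound up to 10 uM.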

[2] = tested on: HTT mRNA; assay: RT-qPCR splicing assay, HTT canonical (CJ) and alternative (AJ) junction mRNA; conditions: for AC50: read-out: HTT AJ (AC50, increase in AJ mRNA)
How it was run: as §1

[3] = tested on: Target C mRNA; assay: RT-qPCR splicing assay panel, Target C canonical junction (CJ) mRNA
How it was run: as §1

[4] = tested on: MYB mRNA; assay: RT-qPCR splicing assay, MYB canonical (CJ) and alternative (AJ) junction mRNA; conditions: for AC50: read-out: MYB AJ (AC50, increase in AJ mRNA)
How it was run: as §1

[5] = Homo sapiens, canonical junction (CJ) mRNA, RT-qPCR panel, Table 4A, read-out: SMN2, decrease in CJ mRNA levels, IC50
[6] = Homo sapiens, 24 h, Table 3A, A673 or K562 cells, 24 h treatment
[7] = Homo sapiens, 24 h, Table 3A, A673 or K562 cells, 24 h treatment, read-out: HTT CJ (IC50, decrease in CJ mRNA)
[8] = Homo sapiens, canonical junction (CJ) mRNA, RT-qPCR panel, Table 4A, read-out: HTT, decrease in CJ mRNA levels, IC50
[9] = Homo sapiens, canonical junction (CJ) mRNA, RT-qPCR panel, Table 4A, read-out: Target C, decrease in CJ mRNA levels, IC50
[10] = Homo sapiens, 24 h, Table 3A, A673 or K562 cells, 24 h treatment, read-out: MYB CJ (IC50, decrease in CJ mRNA)
[11] = Homo sapiens, canonical junction (CJ) mRNA, RT-qPCR panel, Table 4A, read-out: MYB, decrease in CJ mRNA levels, IC50
[12] = Homo sapiens, 24 h, Table 3B, A673 or K562 cells, 24 h treatment
[13] = Table 3A, A673 or K562 cells, 24 h treatment

Row | IC50 [1, 5] [nM] | IC50 [2, 7] [nM] | IC50 [2, 8] [nM] | IC50 [3, 9] [nM] | IC50 [4, 10] [nM] | IC50 [4, 11] [nM] | Compound | AC50 [2, 6] [nM] | AC50 [4, 6] [nM] | further results
1 | < 100 | < 100 | < 100 | 100 to 1000 | 100 to 1000 | 100 to 1000 | Cn1ncc(-c2ccc(-c3ccc(N4CC[C@H](NC(C)(C)C)C4)nn3)c(O)c2)cc1=O [Compound 298, 5-(4-{6-[(3S)-3-(tert-butylamino)pyrrolidin-1-yl]pyridazin-3-yl}-3-hydroxyphenyl)-2-methylpyridazin-3-one] | 100 to 1000 | 100 to 1000 | 
2 | < 100 | 100 to 1000 | 100 to 1000 | 1000 to 10000 | 1000 to 10000 | 1000 to 10000 | Cc1cn2cc(-c3ccc(-c4ccc(N5CCC(NC6CCC6)C5)nn4)c(O)c3)ncc2n1 (centres unmarked) [Compound 327] | 100 to 1000 | 100 to 1000 | 
3 | < 100 | 100 to 1000 | 100 to 1000 | 100 to 1000 | 100 to 1000 | 100 to 1000 | COc1cc(-c2ccc(-c3ccc(N4CCC(N[C@H]5C[C@H](OC)C5)C4)nn3)c(O)c2)cnn1 (some centres unmarked) [Compound 448] | 100 to 1000 | 100 to 1000 | 
4 | 1000 to 10000 | 1000 to 10000 | 1000 to 10000 | > 10000 | > 10000 | > 10000 | Oc1cc(-c2cnn3c2CCC3)c(F)cc1-c1ccc(N2CCC(NC3CCC3)C2)nn1 (centres unmarked) [Compound 443] | 1000 to 10000 | > 10000 | 
5 | < 100 | < 100 | < 100 | < 100 | < 100 | < 100 | Cc1ncc(-c2cc(O)c(-c3ccc(N4CC[C@@H](NC5CCC5)C4)nn3)cc2F)s1 [Compound 146, 2-{6-[(3R)-3-(cyclobutylamino)pyrrolidin-1-yl]pyridazin-3-yl}-4-fluoro-5-(2-methyl-1,3-thiazol-5-yl)phenol] | < 100 | < 100 | 
6 | < 100 | < 100 | < 100 | < 100 | 100 to 1000 | 100 to 1000 | Cc1ncc(-c2ccc(-c3ccc(N4CC[C@@](C)(NCC5CC5)C4)nn3)c(O)c2)s1 (single isomer, unassigned) [Compound 439] | < 100 | 100 to 1000 | 
7 | < 100 | < 100 | < 100 | 100 to 1000 | 100 to 1000 | 100 to 1000 | COc1cc(-c2cc(O)c(-c3ccc(N4CC[C@H](NC5CCC5)C4)nn3)cc2F)cnn1 [Compound 231, 2-{6-[(3S)-3-(cyclobutylamino)pyrrolidin-1-yl]pyridazin-3-yl}-4-fluoro-5-(6-methoxypyridazin-4-yl)phenol] | < 100 | 100 to 1000 | 
8 | < 100 | < 100 | < 100 | < 100 | 100 to 1000 | 100 to 1000 | Cc1ncc(-c2cc(O)c(-c3ccc(N4CCC(NC5CCOCC5)C4)nn3)cc2F)s1 (centres unmarked) [Compound 354, 4-fluoro-5-(2-methyl-1,3-thiazol-5-yl)-2-{6-[3-(oxan-4-ylamino)pyrrolidin-1-yl]pyridazin-3-yl}phenol] | < 100 | < 100 | 
9 | < 100 | < 100 | < 100 | 100 to 1000 | 100 to 1000 | 100 to 1000 | COc1cc(-c2ccc(-c3ccc(N4CC[C@H](NCC5CC5)C4)nn3)c(O)c2)ncn1 [Compound 381, 2-{6-[(3S)-3-[(cyclopropylmethyl)amino]pyrrolidin-1-yl]pyridazin-3-yl}-5-(6-methoxypyrimidin-4-yl)phenol] | 100 to 1000 | 100 to 1000 | 

Further lines, the compound ahead of its results:

Row | Compound | IC50 [1, 5] [nM] | IC50 [2, 7] [nM] | IC50 [2, 8] [nM] | IC50 [3, 9] [nM] | IC50 [4, 10] [nM] | IC50 [4, 11] [nM] | AC50 [2, 6] [nM] | AC50 [4, 6] [nM] | further results
10 | COc1cc(-c2ccc(-c3ccc(N4CC[C@H](NC5CC5)C4)nn3)c(O)c2)cnn1 [Compound 215, 2-{6-[(3S)-3-(cyclopropylamino)pyrrolidin-1-yl]pyridazin-3-yl}-5-(6-methoxypyridazin-4-yl)phenol] | < 100 | < 100 | < 100 | 100 to 1000 | 100 to 1000 | 100 to 1000 | < 100 | 100 to 1000 | 
11 | Cc1ncc(-c2ccc(-c3ccc(N4CCC(NC5CCC5)C4)nn3)c(O)c2)o1 (centres unmarked) [Compound 347, 2-{6-[3-(cyclobutylamino)pyrrolidin-1-yl]pyridazin-3-yl}-5-(2-methyl-1,3-oxazol-5-yl)phenol] | < 100 | 100 to 1000 | 100 to 1000 | 100 to 1000 | 100 to 1000 | 100 to 1000 | 100 to 1000 | 100 to 1000 | 
12 | COc1cc(-c2ccc(-c3ccc(N4CC[C@@H](N(CCF)C5CCC5)C4)nn3)c(O)c2)cnn1 [Compound 313, 2-{6-[(3R)-3-[cyclobutyl(2-fluoroethyl)amino]pyrrolidin-1-yl]pyridazin-3-yl}-5-(6-methoxypyridazin-4-yl)phenol] | 100 to 1000 | 100 to 1000 | 100 to 1000 | > 10000 | > 10000 | > 10000 | 1000 to 10000 | 1000 to 10000 | 
13 | Cc1nc2cc(O)c(-c3cnc(N4CC[C@@H](NC(C)(C)C)C4)nn3)cc2o1 [Compound 808] |  |  |  |  |  |  |  |  | IC50 ([1]; Homo sapiens, Table 4B, gene panel, read-out: SMN2 (IC50, decrease in CJ mRNA levels)): 1000 to 10000 nM; AC50 [2, 12]: > 10000 nM; IC50 ([2]; Homo sapiens, 24 h, Table 3B, A673 or K562 cells, 24 h treatment, read-out: HTT CJ (IC50, decrease in CJ mRNA)): 1000 to 10000 nM; IC50 ([2]; Homo sapiens, Table 4B, gene panel, read-out: HTT (IC50, decrease in CJ mRNA levels)): 1000 to 10000 nM; IC50 ([3]; Homo sapiens, Table 4B, gene panel, read-out: Target C (IC50, decrease in CJ mRNA levels)): > 10000 nM; AC50 [4, 12]: > 10000 nM; IC50 ([4]; Homo sapiens, 24 h, Table 3B, A673 or K562 cells, 24 h treatment, read-out: MYB CJ (IC50, decrease in CJ mRNA)): > 10000 nM; IC50 ([4]; Homo sapiens, Table 4B, gene panel, read-out: MYB (IC50, decrease in CJ mRNA levels)): > 10000 nM
14 | CC1(C)CC(Oc2ccc(-c3cc(F)c(-c4cn[nH]c4)cc3O)nn2)CC(C)(C)N1 [Compound 361] | < 100 | < 100 | < 100 | < 100 | 100 to 1000 | 100 to 1000 | < 100 | < 100 | 
15 | CN(C)c1cc(-c2ccc(-c3ccc(N4CCC(NC5CCC5)C4)nn3)c(O)c2)cnn1 (centres unmarked) [Compound 409] | > 10000 | > 10000 | > 10000 | > 10000 | > 10000 | > 10000 | > 10000 | > 10000 | 
16 | CCOc1cc(-c2ccc(-c3ccc(N4CCC(NCC5CC5)C4)nn3)c(O)c2)ncn1 (centres unmarked) [Compound 433] | > 10000 | > 10000 | > 10000 | > 10000 | > 10000 | > 10000 | > 10000 | > 10000 | 
17 | COc1cc(-c2ccc(-c3ccc(N4CC[C@@H](NC5(C)CC5)C4)nn3)c(O)c2)cnn1 [Compound 266, 5-(6-methoxypyridazin-4-yl)-2-{6-[(3R)-3-[(1-methylcyclopropyl)amino]pyrrolidin-1-yl]pyridazin-3-yl}phenol] |  |  |  |  |  |  |  |  | IC50 ([1]; canonical junction (CJ) mRNA, RT-qPCR panel, Table 4A, read-out: SMN2, decrease in CJ mRNA levels, IC50): < 100 nM; AC50 [2, 13]: < 100 nM; IC50 ([2]; Table 3A, A673 or K562 cells, 24 h treatment, read-out: HTT CJ (IC50, decrease in CJ mRNA)): < 100 nM; IC50 ([2]; canonical junction (CJ) mRNA, RT-qPCR panel, Table 4A, read-out: HTT, decrease in CJ mRNA levels, IC50): < 100 nM; IC50 ([3]; canonical junction (CJ) mRNA, RT-qPCR panel, Table 4A, read-out: Target C, decrease in CJ mRNA levels, IC50): 100 to 1000 nM; AC50 [4, 13]: 100 to 1000 nM; IC50 ([4]; Table 3A, A673 or K562 cells, 24 h treatment, read-out: MYB CJ (IC50, decrease in CJ mRNA)): 100 to 1000 nM; IC50 ([4]; canonical junction (CJ) mRNA, RT-qPCR panel, Table 4A, read-out: MYB, decrease in CJ mRNA levels, IC50): 100 to 1000 nM
18 | Cc1ncc(-c2cc(O)c(-c3ccc(N4CCC(CNC5CCC5)C4)nn3)cc2F)s1 (centres unmarked) [Compound 342, 2-(6-{3-[(cyclobutylamino)methyl]pyrrolidin-1-yl}pyridazin-3-yl)-4-fluoro-5-(2-methyl-1,3-thiazol-5-yl)phenol] | < 100 | < 100 | < 100 | < 100 | > 10000 | > 10000 | < 100 | 1000 to 10000 | 
19 | Cc1ncc(-c2cc(O)c(-c3ccc(N4CCC(NC5CCCCC5)C4)nn3)cc2F)s1 (centres unmarked) [Compound 410] | < 100 | < 100 | < 100 | 100 to 1000 | 1000 to 10000 | 1000 to 10000 | < 100 | 100 to 1000 | 
